From ChEMBL document CHEMBL1201862, “PubChem BioAssay data set” (2004)
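Five compound concentrations were applied to cells in 96-well plates for 48 hours; endpoints were derived by simple linear interpolation of the resulting dose-response curve. Here, GI50 denotes the concentration required for 50% inhibition of growth.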 Active and inactive are the calls of the source. Cut-off read from the data, not from the text of the source: active = GI50 up to about 1.1 µM and inactive = higher.

Tests used:
Experiment in all cases: inhibition of tumour cell growth, NCI panel, 48 h
[1] = tested on: MDA-MB-435
[2] = tested on: RXF 393
[3] = tested on: RPMI-8226
[4] = tested on: ACHN
[5] = tested on: A549
[6] = tested on: DU-145
[7] = tested on: HOP-92
[8] = tested on: SK-OV-3
[9] = tested on: SF-295
[10] = tested on: CCRF-CEM
[11] = tested on: MDA-N
[12] = tested on: HL-60
[13] = tested on: COLO 205
[14] = tested on: MCF7
[15] = tested on: SK-MEL-2
[16] = tested on: NCI/ADR-RES
[17] = tested on: NCI-H23
[18] = tested on: OVCAR-3
[19] = tested on: HT-29
[20] = tested on: UACC-257
[21] = tested on: TK-10
[22] = tested on: M14
[23] = tested on: SK-MEL-5
[24] = tested on: OVCAR-5
[25] = tested on: EKVX
[26] = tested on: IGROV-1
[27] = tested on: NCI-H522
[28] = tested on: PC-3
[29] = tested on: SW-620
[30] = tested on: T47D
[31] = tested on: HCT-15
[32] = tested on: UACC-62
[33] = tested on: SK-MEL-28
[34] = tested on: KM12
[35] = tested on: SN12C
[36] = tested on: 786-0
[37] = tested on: MOLT-4
[38] = tested on: HOP-62
[39] = tested on: UO-31
[40] = tested on: Hs-578T
[41] = tested on: CAKI-1
[42] = tested on: NCI-H226
[43] = tested on: SNB-19
[44] = tested on: U-251
[45] = tested on: HCC 2998
[46] = tested on: NCI-H460
[47] = tested on: OVCAR-8
[48] = tested on: BT-549
[49] = tested on: SF-268
[50] = tested on: HCT-116
[51] = tested on: A498
[52] = tested on: SF-539
[53] = tested on: K562
[54] = tested on: MDA-MB-231
[55] = tested on: LOX IMVI

With `O=C(NC1(C(=O)O)CCCC1)c1ccccc1` the GI50 [1] was > 100 µM (inactive), the GI50 [2] was > 100 µM (inactive) and the GI50 [3] was > 100 µM (inactive). The GI50 [4] was > 100 µM (inactive), the GI50 [5] was > 100 µM (inactive) and the GI50 [6] was > 100 µM (inactive). The GI50 [7] was > 100 µM (inactive), the GI50 [8] was > 100 µM (inactive) and the GI50 [9] was > 100 µM (inactive). The GI50 [10] was > 100 µM (inactive), the GI50 [11] was > 100 µM (inactive) and the GI50 [12] was > 100 µM (inactive). For the same molecule, the GI50 [13] was > 100 µM (inactive), the GI50 [14] was > 100 µM (inactive) and the GI50 [15] was > 100 µM (inactive). The GI50 [16] was > 100 µM (inactive), the GI50 [17] was > 100 µM (inactive) and the GI50 [18] was > 100 µM (inactive). For the same molecule, the GI50 [19] was > 100 µM (inactive), the GI50 [20] was > 100 µM (inactive) and the GI50 [21] was > 100 µM (inactive). The GI50 [22] was > 100 µM (inactive), the GI50 [23] was > 100 µM (inactive) and the GI50 [24] was > 100 µM (inactive). The GI50 [25] was > 100 µM (inactive), the GI50 [26] was > 100 µM (inactive) and the GI50 [27] was > 100 µM (inactive). The GI50 [28] was > 100 µM (inactive), the GI50 [29] was > 100 µM (inactive) and the GI50 [30] was > 100 µM (inactive). For the same molecule, the GI50 [31] was greater than 100 µM, the GI50 [32] was > 100 µM (inactive) and the GI50 [33] was > 100 µM (inactive). The GI50 [34] was > 100 µM (inactive), the GI50 [35] was > 100 µM (inactive) and the GI50 [36] was > 100 µM (inactive). The GI50 [37] was > 100 µM (inactive), the GI50 [38] was > 100 µM (inactive) and the GI50 [39] was > 100 µM (inactive). For the same molecule, the GI50 [40] was > 100 µM (inactive), the GI50 [41] was > 100 µM (inactive) and the GI50 [42] was > 100 µM (inactive). The GI50 [43] was > 100 µM (inactive), the GI50 [44] was > 100 µM (inactive) and the GI50 [45] was > 100 µM (inactive). For the same molecule, the GI50 [46] was > 100 µM (inactive), the GI50 [47] was > 100 µM (inactive) and the GI50 [48] was > 100 µM (inactive). For the same molecule, the GI50 [49] was > 100 µM (inactive), the GI50 [50] was > 100 µM (inactive) and the GI50 [51] was > 100 µM (inactive). The GI50 [52] was > 100 µM (inactive), the GI50 [53] was > 100 µM (inactive) and the GI50 [54] was > 100 µM (inactive). For the same molecule, the GI50 [55] was > 100 µM (inactive).
